Experimental findings from patent publication US4464385A, “Treatment of diabetic complications with hydantoins” (Alcon Laboratories, Inc., priority 1982, dated 1984) are described below.

Data set [1] addresses T1, aldose reductase enzyme obtained from human placenta (Homo sapiens, UniProt P15121).
T1 construct: partially purified aldose reductase enzyme obtained from rat lens or human placenta; from tissue; host or cells: human placenta
The experiment in a line: Inhibition of partially purified aldose reductase from human placenta. The note with it: for IC50: HUMAN, human placenta enzyme, read-out: IC50 (concentration of drug that inhibits 50% of the enzyme activity). In kind it is biochemical. The method, then: The spiro-hydantoin compounds of Preparations C and D were tested for their ability to reduce or inhibit aldose reductase enzyme activity via the procedures of P. F. Kador et. al. as described in Biophysical Chemistry, 8 (1978) 81-85 and P. F. Kador et. al. as described in Documenta Ophthamologicia, 18 (1979) 117. In every case the […] employed was partially purified aldose reductase enzyme obtained from rat lens or human placenta.

Data set [2] has as its target T2, aldose reductase enzyme obtained from rat lens (Rattus norvegicus, UniProt P07943).
T2 construct: partially purified aldose reductase enzyme obtained from rat lens; from tissue; host or cells: rat lens
The experiment in a line: Inhibition of partially purified aldose reductase from rat lens. In kind it is biochemical. The note with it: read-out: IC50 (concentration of drug that inhibits 50% of the enzyme activity). From the text: In every case the substrate employed was partially purified aldose reductase enzyme obtained from rat lens or human placenta.

The subject of data set [3] is membrane bound cytochrome containing oxidoreductase enzymes. The experiment in a line: In vivo conversion of the methylthio group to methylsulfinyl. As to conditions: enzymes common to liver, kidney and lung.

Consider `C[S+]([O-])c1ccc2c(c1)C1(CCO2)NC(=O)NC1=O` (centres unmarked) [D, spiro-(6-methylsulfinylchroman-4,4'-imidazolidine)-2',5'-dione], for which, in data set [1], the IC50 worked out at 12000 nM. Besides, in data set [1] (in vitro), the “in vitro inhibition of human placental aldose reductase” value is recorded as “inhibit human placental aldose reductase”.
Take “dl-spiro-(6-methylthio-chroman-4,4'-imidazolidine)-2',5'-dione”: the IC50 was determined as 270 nM in data set [2] and 660 nM in data set [1]. Besides, the “conversion of methylthio group to methylsulfinyl derivative” value in data set [3] was “converted to the methylsulfinyl derivative”.
